# What was measured:
# SKMEL-28 mitochondria = experiment: 2-D gel electrophoresis of mitochondria enriched samples; type: cell-based
# HASMC cells = experiment: SeaHorse XF analyzer OCR and ECAR; type: cell-based, human; conditions: hyperglycemic, hypoxic conditions
# Source text: Environmental influencers (e.g., MIMs or Epi-shifters) may also be identified by changes in cellular energetics. One example of the measurement of cellular energetics are the real-time measures of the consumption of molecular oxygen and/or the change in pH of the media of a cell culture. For example, the ability of a potential epi-shifter to modulate the metabolic state of a cell may be analyzed using, for example, the XF24 Analyzer (Seahorse, Inc.). This technology allows for real time detection of oxygen and pH changes in a monolayer of cells in order to evaluate the bioenergetics of a cell microenvironment. The XF24 Analyzer measures and compares the rates of oxygen consumption (OCR), which is a measure of aerobic metabolism, and extracellular acidification (ECAR), which is a measure of glycolysis, both key indicators of cellular energetics.
# (SeaHorse Biosciences Inc, North Billerica, Mass.).
# In this experiment, the OCR and extracellular acidification rate (ECAR) in normal cells lines were obtained in the presence and absence of CoQ10 to determine baseline values. It was observed that in its native nutrient environment, the basal OCR rates in normal cells lines are different, and are usually a function of the physiological roles of the cells in the body. […]
# In Table 54 the measured baseline ECAR values (mpH/min) in HASMC were higher compared to that of HDFa. […]
# SkBr-3 Cells = experiment: Real-time PCR Apoptosis Array; type: cell-based, human; design: key: fold change in mRNA level; negative = down-regulation; conditions: 50 um Q10, 24 hours
# Description: RNA was quantified by measuring Optical Density at 260 nm.
# Changes in mRNA levels were evaluated using real-time PCR quantification to assess mRNA levels in pre-selected subsets containing […] pathway specific targets.
# For the interpretation of mRNA results, the genes that were altered in their mRNA transcription by a two-fold level were identified and evaluated. The level of gene transcription to produce mRNA only provides a rough estimate of potential changes in the level of the expressed protein. The skilled artisan will appreciate that each mRNA may have different rates at which it is degraded or its translation inefficiently, thus resulting in differing amounts of protein.
# The assay method of RT-PCR was utilized to provide a measure of mRNA level changes to a total of 84 apoptotic pathway related proteins.
# PC-3 = experiment: Nexin assay for apoptosis (Annexin-V-PE/7-AAD, flow cytometry); type: cell-based; conditions: 50 μM and 100 μM Q10, 24 hours; less than PaCa2
# Source text: (§1) The 7AAD dye will enter into cells with permeabilized cell membranes; primarily those cells that are in late apoptosis. Annexin-V-PE is a dye that binds to Phosphotidyl serine, which is exposed on the outer surface of the plasma membrane in early apoptotic cells. The Nexin reagent thus can be used to differentiate between different populations of apoptotic cells in a flow cytometer.
# MCF-7 = experiment: as above; type: cell-based; conditions: 50 μM and 100 μM Q10, 24 hours
# Source text: as §1
# SK-MEL28 = experiment: as above; type: cell-based; conditions: 50 μM and 100 μM Q10, 24 hours
# Source text: as §1
# [1] = system: HepG2 (liver cancer) cells; experiment: Real-time PCR Diabetes Array; type: cell-based
# Description: (§2) The treatment was initiated on 1×10^5 cells per well, following the procedure utilized in the PaCa2 cells (above, Examples 9-11). However, the total amount of RNA that was extracted from these samples was lower than expected. Reverse transcription is normally done using 1 μg of total RNA (determined by measurement at 260 nm). The maximum volume that can be used per reverse transcription is 8 μl.
# variety of cell types = experiment: Western blot analysis (Bcl-xL, Vimentin, oxidative phosphorylation complexes, mitochondrial membrane integrity proteins); type: cell-based; conditions: 50 or 100 μM Q10
# Description: Approximately 50 μg of protein were assayed per sample by immunoblotting. All treatments were run in triplicate with controls. […] The primary antibodies were incubated overnight at 4 degrees C. in a 5% BSA and TBST solution. Secondary antibodies were incubated for one hour at 4 degrees. All antibodies were purchased from Cell Signaling Technology. Antibodies were used at a ratio of 1:1000, with the exception of βActin at a ratio of 1:5000. Blots were developed and results were quantified using the NIH Java based densitometer analysis software Image J. All blots were also probed for and normalized to their respective βActin expression.
# The first experiment processed and evaluated by Western blot and 2-D gel electrophoresis was carried out on the skin cancer cell line SKMEL-28.
# A variety of cell types were evaluated by Western blot analysis against an antibody for Bcl-xL (FIG. 14), an antibody for Vimentin (FIG. 15), a series of antibodies for mitochondrial oxidative phosphorylation function (FIGS. 16-21) and against a series of antibodies related to mitochondrial membrane integrity (FIGS. 22-27).
# [2] = system: HepG2 (liver cancer) cells; experiment: Real-time PCR Apoptosis Array; type: cell-based
# Description: as §2
# However, the array for 48 hours was run choosing FAM as the fluorophore instead of SYBR. Both FAM and SYBR fluoresce at the same wavelength.
# SKBr3 = experiment: Nexin assay for apoptosis (Annexin-V-PE/7-AAD, flow cytometry); type: cell-based, human; conditions: 50 μM or 100 μM Q10, 24 hours
# Source text: as §1
smiles,measurement,setting,value
"COC1=C(OC)C(=O)C(C/C=C(\C)CC/C=C(\C)CC/C=C(\C)CC/C=C(\C)CC/C=C(\C)CC/C=C(\C)CC/C=C(\C)CC/C=C(\C)CC/C=C(\C)CCC=C(C)C)=C(C)C1=O [Q10, Coenzyme Q10]","PDIA3 (ER60 protein), spot 110: Response","SKMEL-28 mitochondria; 100 μM Q10, 19 and 48 hr",Up at 19 and 48 hr
same,"Unknown, spot 131: Response","SKMEL-28 mitochondria; 100 μM Q10, 19 and 48 hr",drops more for 19
same,"CCDC58, spot 75: Response","SKMEL-28 mitochondria; 100 μM Q10, 48 hr",Up at 48 hr
same,"Unknown protein, spot 11: Response","SKMEL-28 mitochondria; 100 μM Q10, after 6 hr",drop to low levels
same,"Beta-Actin, spot 202: Response","SKMEL-28 mitochondria; 100 μM Q10, only at 19 hr",Up only at 19 hr
same,"KRT10 (Keratin 10), spot 185: Response","SKMEL-28 mitochondria; 100 μM Q10, only at 19 hr",Up only at 19 hr
same,"MLEC (Malectin), spot 246: Response","SKMEL-28 mitochondria; 100 μM Q10, only at 19 hr",Up only at 19 hr
same,ECAR rates,HASMC cells,downward trend
same,APAF1 mRNA Up-Down Regulation,SkBr-3 Cells,2.6244
same,BAX mRNA Up-Down Regulation,SkBr-3 Cells,3.896
same,BCL2L1 mRNA Up-Down Regulation,SkBr-3 Cells,13.1957
same,BCL2L11 mRNA Up-Down Regulation,SkBr-3 Cells,4.6012
same,BCL2 mRNA Up-Down Regulation,SkBr-3 Cells,5.4717
same,BIRC6 mRNA Up-Down Regulation,SkBr-3 Cells,4.7966
same,BNIP2 mRNA Up-Down Regulation,SkBr-3 Cells,6.3291
same,BRAF mRNA Up-Down Regulation,SkBr-3 Cells,4.3832
same,HPRT1 mRNA Up-Down Regulation,SkBr-3 Cells,−160.6748
same,XIAP mRNA Up-Down Regulation,SkBr-3 Cells,4.3832
same,early and late apoptotic population,PC-3,increase
same,apoptotic population,MCF-7,increase only in early apoptotic population
same,apoptotic population,SK-MEL28,increase only in early apoptotic population
same,genes regulated in the Diabetes Arrays,"[1]; 100 μM Q10, PPARGC1A gene",PPARGC1A
same,genes regulated in the Diabetes Arrays,"[1]; 100 μM Q10, PRKAA1 gene",PRKAA1
same,genes regulated in the Diabetes Arrays,"[1]; 100 μM Q10, SNAP25 gene",SNAP25
same,"levels of examined proteins (Bcl-xL, Vimentin, oxidative phosphorylation and mitochondrial membrane integrity proteins)",variety of cell types,upregulated or downregulated
same,genes regulated in the Apoptosis Arrays,"[2]; 100 μM Q10, gene BAG1",BAG1
same,genes regulated in the Apoptosis Arrays,"[2]; 100 μM Q10, gene CASP9",CASP9
same,genes regulated in the Apoptosis Arrays,"[2]; 100 μM Q10, gene TNFRSF1A",TNFRSF1A
same,early and late apoptosis,SKBr3,did not show any significant increases
